Results reported in patent US8329735B2, “Tetrazole compounds which selectively modulate the CB2 receptor” (Boehringer Ingelheim International GmbH, priority 2010, dated 2012).
In brackets after ≈: the same amount, converted by molar mass. Read-outs that look alike come from different tables or passages of the source.

Legend:
human CB2R = biological target: T1, human CB2R (Homo sapiens, UniProt P34972); experiment: CB2R mediated modulation of cAMP synthesis; format: cell-based
T1 construct: host or cells: CHO cells
Experimental: Compounds of the invention are evaluated for their CB2 agonist or inverse agonistic activity in accordance with the following experimental method.
(§1) CHO cells expressing human CB2R (Euroscreen) are plated at a density of 5000 cells per well in 384 well plates and incubated overnight at 37° C. After removing the media, the cells are treated with test compounds diluted in stimulation buffer containing 1 mM IBMX, 0.25% BSA and 10 uM Forskolin. The assay is incubated for 30 minutes at 37° C. Cells are lysed and the cAMP concentration is measured using DiscoverX—XS cAMP kit, following the manufacturer's protocol. In this setting, agonists will decrease forskolin induced production of cAMP while inverse agonists will further increase forskolin induced production of cAMP. EC50 of agonists are calculated as follows. The maximal amount of cAMP produced by forskolin compared to the level of cAMP inhibited by 1 uM CP55940 is defined as 100%. The EC50 value of each test compound is determined as the concentration at which 50% of the forskolin-stimulated cAMP synthesis is inhibited. Data is analyzed using a four-parameter logistic model. (Model 205 of XLfit 4.0).

human CB1R = biological target: T2, human CB1R (Homo sapiens, UniProt P21554); experiment: CB1R mediated modulation of cAMP synthesis; format: cell-based; details: CHO cells expressing human CB1R, forskolin-stimulated cAMP
T2 construct: host or cells: CHO cells
Experimental: Compounds of the invention are evaluated for their CB1 agonist or inverse agonistic activity in accordance with the following experimental method.
as §1, with “CB1R” for “CB2R”

[1] = Human microsomal stability assay; format: in vitro ADME; details: human liver microsomes 1 mg protein/ml, 1 uM compound, pH 7.4
Experimental: The double time point high throughput screen for human liver microsomal metabolic stability is used to measure the in vitro metabolism of test compounds by human liver microsomal enzymes. The data collected are analyzed to calculate a half-life (t½, min) and clearance (expressed as percent hepatic blood flow, % QH) for test compounds. The assay is performed in 50 mM potassium phosphate buffer, pH 7.4 and 2.5 mM NADPH. Test samples are dissolved in DMSO and acetonitrile for a final assay concentration of 1 uM. Human liver microsomes are diluted in assay buffer to a final assay concentration of 1 mg protein/ml. Compound solution and microsome suspension are added to assay buffer for a final incubation volume of 350 ul. The preparation is incubated for 5 min in a 37° C. water bath. The reaction is started by the addition of NADPH. Volumes of 80 ul are removed from the incubation mix at 0, 5, and 30 min after the start of the reaction and added to 160 ul acetonitrile. The supernatant is transferred to 0.25 mm glass fiber filter plates and centrifuged for 5 min at 3000 rpm. Injection volumes of 10 ul are typically added to HPLC columns with formic acid in water or acetonitrile at a flow rate of 0.3 ml/min. Percent loss of parent compound is calculated from the area under each time point to determine the half-life and clearance. Preferred compounds of the invention will have a human liver microsomal stability of <25% QH.

[2] = Aqueous (equilibrium) solubility assay; format: physicochemical; details: aqueous buffer, thermodynamic from solid, 48 hrs equilibrium
Experimental: The equilibrium solubility of compounds is determined in pH 2, 4.5, 6.8 buffers. Prior to solubility measurement, the crystalline/amorphous characteristics of the sample are determined by observing the powder form under polarized light microscope. Solubility is only measured when compound is crystalline.
Approximately 2 mg of compound are weighed out into a vial and 1-2 ml of buffer are added into the vial (pHs 2 & 4.5, use 1 ml and for pHs 6.8 and 7.4 use 2 ml of buffer). The vial is rotated for 48 hrs protected from light. After 48 hrs, the sample is transferred into an eppendorf tube and centrifuged for 10 minutes at 14,000 RPM, if the supernatant is not clear, it is filtered (PVDF filter). The clear supernatant is diluted if necessary, before analyzing via HPLC. The final pH of the supernatant or the filtrate is measured and reported. The external calibration curve is used to determine the solubility value. The percentage of extraneous peaks relative to the parent peak is monitored in the standard solution as well as the solubility sample. Preferred compounds of the invention will have a solubility of >100 μg/ml.

[3] = tested on: Salmonella bacterial strains TA98 and TA100; experiment: Ames mutagenicity assay: bacteria reverse mutation screening assay; format: cell-based; details: TA98 and TA100, presence or absence of S9
Experimental: The Ames ^(1) Salmonella bacterial strains used in the abbreviated screening assay ^(2) are TA98 and TA100. Actively growing (log phase) bacteria are incubated with test compound and trace amounts of histidine in the presence or absence of S9 for 48 hours on minimal agar plates. Test compound is dissolved in DMSO to a final concentration of 100 mg/ml. The stock is serially diluted to yield concentrations of 100, 50, 25 12.5 and 6.3 mg/ml. Fifty microliters of dosing solution is combined with top agar and buffer (or S9 mix) and poured on duplicate plates to yield effective doses of 5000, 2500, 1250, 625 and 313 μg/plate. Positive and negative controls plates are included. Formation of colonies after 48 hr incubation at 37° C. is an indication of genetic reversion, either arising spontaneously or caused by the test compound. The average number of spontaneous colonies growing on control plates is compared to the number of colonies on test plates. A fold increase of 2-3× over background is generally considered a positive response for mutagenicity. • 1. Maron, D. M. and Ames, B. N. (1983). “Revised Methods for the Salmonella Mutagenicity Test”. Mutat. Res. 113, 173-215. • 2. D. A. Burke, D. J. Wedd, and B. Burlinson (1996). “Use of the Miniscreen assay to screen novel compounds for bacterial mutagenicity in the pharmaceutical industry”. Mutagenesis 11: 201-205.

[4] = pH 4.5 buffer, read-out: solubility at pH 4.5
[5] = pH 6.8 buffer, read-out: solubility at pH 6.8
[6] = Table XI, CHO cells expressing human CB2R, forskolin-stimulated cAMP, read-out: CB2 CAMP EC50
[7] = Table XI, read-out: CB1 CAMP EC50

T2 sequence (P21554 whole entry): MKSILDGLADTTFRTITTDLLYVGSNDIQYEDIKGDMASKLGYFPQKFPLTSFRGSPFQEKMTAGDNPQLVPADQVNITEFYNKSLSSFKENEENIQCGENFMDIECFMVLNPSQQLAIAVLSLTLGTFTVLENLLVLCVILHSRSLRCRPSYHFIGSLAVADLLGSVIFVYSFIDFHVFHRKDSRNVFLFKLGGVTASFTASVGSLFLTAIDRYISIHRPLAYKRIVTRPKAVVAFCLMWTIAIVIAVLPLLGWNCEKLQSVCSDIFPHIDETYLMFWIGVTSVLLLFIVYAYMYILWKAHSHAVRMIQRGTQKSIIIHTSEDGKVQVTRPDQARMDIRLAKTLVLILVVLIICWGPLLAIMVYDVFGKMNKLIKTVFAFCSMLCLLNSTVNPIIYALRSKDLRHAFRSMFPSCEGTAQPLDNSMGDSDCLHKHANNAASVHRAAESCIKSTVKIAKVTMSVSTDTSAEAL
T1 sequence (P34972 whole entry): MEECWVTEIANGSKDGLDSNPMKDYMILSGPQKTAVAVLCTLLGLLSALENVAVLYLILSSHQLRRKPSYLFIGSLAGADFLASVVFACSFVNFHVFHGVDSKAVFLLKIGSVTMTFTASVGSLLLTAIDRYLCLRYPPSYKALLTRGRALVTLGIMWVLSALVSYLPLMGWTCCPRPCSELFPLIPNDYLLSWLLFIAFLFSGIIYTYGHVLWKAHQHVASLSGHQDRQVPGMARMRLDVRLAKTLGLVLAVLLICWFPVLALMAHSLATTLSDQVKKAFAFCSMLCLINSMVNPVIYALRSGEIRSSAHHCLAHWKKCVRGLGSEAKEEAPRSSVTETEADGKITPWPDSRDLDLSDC

SMILES | EC50 (human CB2R) [nM] | EC50 (human CB1R; CB1 CAMP EC50, Table XI) [nM] | HLM clearance (percent hepatic blood flow) [1] [QH %] | solubility at 48 h [2, 4] [µg/mL] | solubility at 48 h [2, 5] [µg/mL] | Ames [3] | EC50 (human CB1R; CB1 EC50, Table II) [nM] | EC50 (human CB2R; [6]) [nM] | EC50 (human CB1R; [7]) [nM] | EC50 (human CB2R; Table II, CHO cells expressing human CB2R, forskolin-stimulated cAMP, read-out: CB2 EC50) [nM] | EC50 (human CB1R; Table II, read-out: CB1 EC50) [nM]
CC(C)(C)c1csc(NC(=O)C(C)(C)S(=O)(=O)c2ccc(F)cc2)n1 [Example 252 WO08014199] | 0.401 | 934 | 85 | 1.74 (≈ 4.53 µM) | 1.62 (≈ 4.21 µM) | negative | – | – | – | – | –
CC(C)(C)c1csc(NC(=O)C(C)(C)S(=O)(=O)C2CCOCC2)n1 [Example 67 WO08039645] | 12 | 11400 | 79 | 15 (≈ 40.1 µM) | 16 (≈ 42.7 µM) | negative | – | – | – | – | –
CC(C)(C)c1cc(NC(=O)C(C)(C)S(=O)(=O)CC2CCOCC2)no1 [Example 56 WO08039645] | 4.5 | > 20000 | 47 | 47 (≈ 126 µM) | 44 (≈ 118 µM) | negative | – | – | – | – | –
CC(C)(C)n1nnc(NC(=O)C(C)(C)S(=O)(=O)C2CCOCC2)n1 [Table II compound 1] | 21 | > 50000 | <30.10 | > 2120 | > 1750 | negative | > 20000 | – | – | – | –
CC(C)(C)n1nnc(NC(=O)C(C)(C)S(=O)(=O)CC[C@@H]2CCOC2)n1 | 12 | – | – | – | – | – | ~50000 | – | – | – | –
CC(C)(C)c1cc(NC(=O)C(C)(C)S(=O)(=O)c2ccc(F)cc2)no1 [Example 130 WO08014199] | 2.4 | 2240 | 68 | 5.2 (≈ 14.1 µM) | 4.7 (≈ 12.8 µM) | negative | – | – | – | – | –
CC(C)(C)n1nnc(NC(=O)C(C)(C)S(=O)(=O)[C@H]2CC[C@@H](O)CC2)n1 | 8.7 | – | – | – | – | – | > 50000 | – | – | – | –
CCC(C)S(=O)(=O)C(C)(C)C(=O)Nc1nc(C(C)(C)C)cs1 (centres unmarked) [Example 44 WO08039645] | 14 | 10700 | 67 | 13 (≈ 37.5 µM) | – | negative | – | – | – | – | –
Cn1nc(C(C)(C)C)cc1NC(=O)C(C)(C)S(=O)(=O)CC1CCOCC1 [Example 59 WO08039645] | – | – | <30.10 | 396 (≈ 1030 µM) | 452 (≈ 1170 µM) | positive | – | 140 | > 20000 | – | –
CO[C@H]1CC[C@@H](S(=O)(=O)C(C)(C)C(=O)Nc2nnn(C(C)(C)C)n2)CC1 | 56 | – | – | – | – | – | > 50000 | – | – | – | –
CC[C@H](C)S(=O)(=O)C(C)(C)C(=O)Nc1nnn(C(C)(C)C)n1 [Table II compound 5] | – | – | <30.10 | 1210 (≈ 3640 µM) | 1150 (≈ 3470 µM) | negative | – | – | > 50000 | 101 | > 50000
CC(C)(C)c1cc(NC(=O)C(C)(C)S(=O)(=O)c2ccc(F)cc2)on1 [Example 248 WO08014199] | 0.98 | 3290 | 32 | 1.68 (≈ 4.56 µM) | 1.25 (≈ 3.39 µM) | negative | – | – | – | – | –
Cn1nc(C(C)(C)C)cc1NC(=O)C(C)(C)S(=O)(=O)C1CCOCC1 [Example 69 WO08039645] | – | – | <30.10 | 1040 (≈ 2810 µM) | 1230 (≈ 3320 µM) | positive | – | 216 | > 20000 | – | –
Cn1nc(C(C)(C)C)cc1NC(=O)C(C)(C)S(=O)(=O)c1ccc(F)cc1 [Example 251 WO08014199] | 2.57 | 10900 | 30 | 137 (≈ 359 µM) | 148 (≈ 388 µM) | positive | – | – | – | – | –
CC(C)(C)c1cc(NC(=O)C(C)(C)S(=O)(=O)C2CCOCC2)no1 [Example 66 WO08039645] | 0.72 | > 50000 | 57 | 56 (≈ 156 µM) | 53 (≈ 148 µM) | negative | – | – | – | – | –
CC(C)(C)n1nnc(NC(=O)C(C)(C)S(=O)(=O)CC2CCOCC2)n1 [Table II compound 2] | 50 | > 50000 | <30.10 | 391 (≈ 1050 µM) | 353 (≈ 945 µM) | negative | > 50000 | – | – | – | –
CC(C)(C)c1csc(NC(=O)C(C)(C)S(=O)(=O)CC2CCOCC2)n1 [Example 57 WO08039645] | 23 | 2400 | 87 | 383 (≈ 986 µM) | 406 (≈ 1040 µM) | negative | – | – | – | – | –
CCC(C)S(=O)(=O)C(C)(C)C(=O)Nc1cc(C(C)(C)C)on1 (centres unmarked) [Example 42 WO08039645] | 19 | > 20000 | 68 | 20 (≈ 60.5 µM) | – | negative | – | – | – | – | –
CC(C)(C)n1nnc(NC(=O)C(C)(C)S(=O)(=O)c2ccc(F)cc2)n1 [Table II compound 6] | 22 | 39500 | <30 | 133 (≈ 360 µM) | 122 (≈ 330 µM) | negative | 39500 | – | – | – | –
